Test results taken from paper PMC4634863, “A Putative Non-Canonical Ras-Like GTPase from P. falciparum: Chemical Properties and Characterization of the Protein” (PLoS ONE, 2015).

Biological target: T1, PfG (Plasmodium falciparum, UniProt O77338)
T1 construct: gene PF3D7_0313500
T1 sequence (O77338 1-911): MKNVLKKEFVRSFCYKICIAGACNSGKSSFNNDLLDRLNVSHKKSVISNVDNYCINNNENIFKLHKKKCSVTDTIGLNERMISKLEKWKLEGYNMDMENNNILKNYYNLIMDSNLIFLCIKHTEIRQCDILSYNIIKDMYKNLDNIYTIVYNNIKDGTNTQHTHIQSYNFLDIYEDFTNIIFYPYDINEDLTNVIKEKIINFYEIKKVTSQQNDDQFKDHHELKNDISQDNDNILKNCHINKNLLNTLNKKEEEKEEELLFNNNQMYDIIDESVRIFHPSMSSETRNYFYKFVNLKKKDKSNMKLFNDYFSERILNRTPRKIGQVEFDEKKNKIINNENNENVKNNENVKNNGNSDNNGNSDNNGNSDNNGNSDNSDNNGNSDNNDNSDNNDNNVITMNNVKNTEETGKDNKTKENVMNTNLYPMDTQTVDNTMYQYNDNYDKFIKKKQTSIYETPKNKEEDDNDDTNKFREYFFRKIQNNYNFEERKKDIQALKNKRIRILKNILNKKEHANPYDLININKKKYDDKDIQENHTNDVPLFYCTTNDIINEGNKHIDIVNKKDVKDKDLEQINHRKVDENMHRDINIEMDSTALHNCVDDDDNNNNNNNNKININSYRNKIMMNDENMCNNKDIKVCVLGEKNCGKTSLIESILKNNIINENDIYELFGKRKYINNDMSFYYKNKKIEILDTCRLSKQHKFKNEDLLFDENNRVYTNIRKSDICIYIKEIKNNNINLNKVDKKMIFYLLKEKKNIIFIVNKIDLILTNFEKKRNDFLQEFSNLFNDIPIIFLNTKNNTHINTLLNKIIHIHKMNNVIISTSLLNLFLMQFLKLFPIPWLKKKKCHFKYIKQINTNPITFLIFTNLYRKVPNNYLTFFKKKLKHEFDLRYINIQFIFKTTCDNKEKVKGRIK
Assay: fluorescence emission on binding, […] s time courses
Details: labelled compound; reversible nucleotide binding, unit printed as nmol (nM probably meant)

In the case of BODIPY® FL GTPγS, the “dissociation constant (Kd)” value is reported as 1.77 ± 0.36 nmol.
